Tests used:
DRB5*0101 = DRB5*0101 (Homo sapiens, UniProt P01903+Q30154); assay: biochemical; format: binding
DRB3*0101 = DRB3*0101 (Homo sapiens, UniProt P01903+P79483); assay: biochemical; format: binding

| SMILES | IC50 (DRB5*0101) | IC50 (DRB3*0101) |
| --- | --- | --- |
| CC[C@H](C)[C@H](NC(=O)[C@@H]1CCCN1C(=O)CNC(=O)[C@H](C)NC(=O)[C@H](CC(C)C)NC(=O)[C@H](CO)NC(=O)[C@H](CCCCN)NC(=O)[C@@H]1CCCN1C(=O)[C@@H](NC(=O)[C@@H](NC(=O)[C@H](CCSC)NC(=O)[C@H](CC(=O)O)NC(=O)[C@H](CO)NC(=O)[C@H](CCC(=O)O)NC(=O)[C@@H](N)CC(C)C)[C@@H](C)CC)[C@@H](C)CC)C(=O)O [NS1 237-251] | 14.8 µM | 2.71 µM |
| CC(C)C[C@H](NC(=O)[C@H](CCCNC(=N)N)NC(=O)[C@H](CCCCN)NC(=O)CNC(=O)[C@H](CC(N)=O)NC(=O)[C@H](Cc1ccc(O)cc1)NC(=O)[C@@H](NC(=O)[C@H](CC(C)C)NC(=O)[C@@H](N)C(C)C)[C@@H](C)O)C(=O)N[C@@H](CCC(=O)O)C(=O)N1CCC[C@H]1C(=O)N[C@@H](CC(N)=O)C(=O)N[C@@H](Cc1c[nH]c2ccccc12)C(=O)N[C@@H](C)C(=O)N[C@@H](CO)C(=O)O [NS3 57-71] | 3.76 µM | 5.43 µM |
| CSCC[C@H](NC(=O)[C@@H](NC(=O)[C@H](CCC(N)=O)NC(=O)[C@H](Cc1ccccc1)NC(=O)[C@H](CC(N)=O)NC(=O)[C@H](CCCCN)NC(=O)[C@@H]1CCCN1C(=O)[C@H](CC(N)=O)NC(=O)[C@H](CCCCN)NC(=O)CNC(=O)[C@@H]1CCCN1C(=O)[C@@H](N)CCC(=O)O)[C@@H](C)O)C(=O)N1CCC[C@H]1C(=O)NCC(=O)N[C@H](C(=O)O)[C@@H](C)O [NS3 101-115] | 1.08 µM | 4.12 µM |
| CC[C@H](C)[C@H](NC(=O)[C@@H]1CCCN1C(=O)[C@H](CO)NC(=O)CNC(=O)[C@H](CO)NC(=O)[C@@H](NC(=O)CNC(=O)[C@@H]1CCCN1C(=O)[C@H](CCCCN)NC(=O)[C@H](Cc1ccccc1)NC(=O)[C@H](CC(=O)O)NC(=O)[C@H](CC(C)C)NC(=O)[C@H](C)NC(=O)[C@@H](NC(=O)[C@H](C)N)[C@@H](C)CC)[C@@H](C)O)C(=O)O [NS3 125-139] | 4.35 µM | 9.22 µM |
| CC[C@H](C)[C@H](NC(=O)[C@@H](NC(=O)[C@@H]1CCCN1C(=O)[C@@H](N)CO)[C@@H](C)CC)C(=O)N[C@@H](CC(N)=O)C(=O)N[C@@H](CCCNC(=N)N)C(=O)N[C@@H](CCC(=O)O)C(=O)NCC(=O)N[C@@H](CCCCN)C(=O)N[C@H](C(=O)N[C@H](C(=O)NCC(=O)N[C@@H](CC(C)C)C(=O)N[C@@H](Cc1ccc(O)cc1)C(=O)NCC(=O)O)C(C)C)C(C)C [NS3 137-151] | 1.68 µM | 9.58 µM |
| CC[C@H](C)[C@H](N)C(=O)N[C@@H](CCCNC(=N)N)C(=O)N[C@@H](Cc1ccc(O)cc1)C(=O)N[C@@H](CCC(N)=O)C(=O)N[C@H](C(=O)N[C@H](C(=O)N[C@@H](C)C(=O)N[C@H](C(=O)N[C@@H](CCCCN)C(=O)N[C@@H](CO)C(=O)N[C@@H](CCC(=O)O)C(=O)N[C@@H](Cc1c[nH]cn1)C(=O)N[C@H](C(=O)NCC(=O)N[C@@H](CCCNC(=N)N)C(=O)O)[C@@H](C)O)[C@@H](C)O)[C@@H](C)O)[C@@H](C)O [NS3 241-255] | 0.017 µM | 12.8 µM |
| CC[C@H](C)[C@H](N)C(=O)N[C@@H](Cc1ccccc1)C(=O)N[C@@H](CCSC)C(=O)N[C@H](C(=O)N[C@@H](C)C(=O)N[C@H](C(=O)N1CCC[C@H]1C(=O)N1CCC[C@H]1C(=O)NCC(=O)N[C@H](C(=O)N[C@@H](C)C(=O)N[C@@H](CC(=O)O)C(=O)N[C@@H](C)C(=O)N[C@@H](Cc1ccccc1)C(=O)N1CCC[C@H]1C(=O)O)[C@@H](C)O)[C@@H](C)O)[C@@H](C)O [NS3 313-327] | 13.9 µM | 9.44 µM |
| CC[C@H](C)[C@H](NC(=O)[C@H](CO)NC(=O)[C@@H]1CCCN1C(=O)[C@@H](NC(=O)[C@H](Cc1ccccc1)NC(=O)[C@H](Cc1c[nH]c2ccccc12)NC(=O)[C@@H](NC(=O)[C@@H](NC(=O)[C@H](CCCCN)NC(=O)CNC(=O)[C@H](C)NC(=O)[C@H](Cc1ccccc1)NC(=O)[C@H](CC(=O)O)NC(=O)[C@@H](N)[C@@H](C)O)[C@@H](C)O)C(C)C)C(C)C)C(=O)N[C@@H](CCCCN)C(=O)O [NS3 353-367] | 1.22 µM | 15.7 µM |
| CC[C@H](C)[C@H](NC(=O)[C@@H](NC(=O)[C@H](CCCCN)NC(=O)[C@@H](N)CCCCN)C(C)C)C(=O)N[C@@H](CCC(N)=O)C(=O)N[C@@H](CC(C)C)C(=O)N[C@@H](CO)C(=O)N[C@@H](CCCNC(=N)N)C(=O)N[C@@H](CCCCN)C(=O)N[C@H](C(=O)N[C@@H](Cc1ccccc1)C(=O)N[C@@H](CC(=O)O)C(=O)N[C@H](C(=O)N[C@@H](CCC(=O)O)C(=O)N[C@@H](Cc1ccc(O)cc1)C(=O)O)[C@@H](C)O)[C@@H](C)O [NS3 381-395] | 5.72 µM | 0.399 µM |
| CC(C)C[C@H](NC(=O)[C@H](CCCCN)NC(=O)[C@@H](NC(=O)[C@H](CCCCN)NC(=O)[C@H](CCC(N)=O)NC(=O)[C@H](Cc1ccc(O)cc1)NC(=O)[C@H](CCC(=O)O)NC(=O)[C@@H](N)[C@@H](C)O)[C@@H](C)O)C(=O)N[C@@H](CC(N)=O)C(=O)N[C@@H](CC(=O)O)C(=O)N[C@@H](Cc1c[nH]c2ccccc12)C(=O)N[C@@H](CC(=O)O)C(=O)N[C@@H](Cc1ccccc1)C(=O)N[C@H](C(=O)N[C@H](C(=O)O)C(C)C)C(C)C [NS3 393-407] | 15.9 µM | 3.7 µM |
| CC[C@H](C)[C@H](NC(=O)[C@H](CC(=O)O)NC(=O)[C@@H](N)[C@@H](C)O)C(=O)N[C@@H](CO)C(=O)N[C@@H](CCC(=O)O)C(=O)N[C@@H](CCSC)C(=O)NCC(=O)N[C@@H](C)C(=O)N[C@@H](CC(N)=O)C(=O)N[C@@H](Cc1ccccc1)C(=O)N[C@@H](CCCCN)C(=O)N[C@@H](C)C(=O)N[C@@H](CC(=O)O)C(=O)N[C@@H](CCCNC(=N)N)C(=O)N[C@H](C(=O)O)C(C)C [NS3 409-423] | 0.05 µM | 0.168 µM |
| CC[C@H](C)[C@H](NC(=O)[C@@H](NC(=O)[C@H](CCCNC(=N)N)NC(=O)[C@H](CC(=O)O)NC(=O)[C@H](C)NC(=O)[C@H](CCCCN)NC(=O)[C@H](Cc1ccccc1)NC(=O)[C@H](CC(N)=O)NC(=O)[C@H](C)NC(=O)CNC(=O)[C@H](CCSC)NC(=O)[C@@H](N)CCC(=O)O)C(C)C)C(=O)N[C@@H](CC(=O)O)C(=O)N1CCC[C@H]1C(=O)N[C@@H](CCCNC(=N)N)C(=O)O [NS3 413-427] | 1.2 µM | 0.096 µM |
| CSCC[C@H](NC(=O)CNC(=O)CNC(=O)[C@H](Cc1c[nH]cn1)NC(=O)[C@H](CCCCN)NC(=O)[C@H](CCCNC(=N)N)NC(=O)[C@H](CCC(N)=O)NC(=O)[C@H](CC(C)C)NC(=O)[C@H](CCCNC(=N)N)NC(=O)[C@H](CCC(=O)O)NC(=O)[C@@H](N)CC(C)C)C(=O)N[C@@H](CC(C)C)C(=O)N[C@H](C(=O)N[C@@H](CCCNC(=N)N)C(=O)N[C@@H](CC(N)=O)C(=O)N1CCC[C@H]1C(=O)N[C@@H](CC(C)C)C(=O)O)C(C)C [NS5 193-209] | 1.2 µM | 12 µM |
| CC(C)[C@H](NC(=O)[C@H](CCC(=O)O)NC(=O)[C@H](Cc1ccc(O)cc1)NC(=O)[C@H](CO)NC(=O)CNC(=O)[C@H](Cc1c[nH]cn1)NC(=O)[C@H](Cc1ccc(O)cc1)NC(=O)[C@H](C)NC(=O)[C@H](Cc1c[nH]c2ccccc12)NC(=O)[C@@H](NC(=O)[C@H](CCCCN)NC(=O)[C@H](Cc1ccc(O)cc1)NC(=O)[C@@H]1CCCN1C(=O)[C@H](CC(N)=O)NC(=O)[C@H](CCC(=O)O)NC(=O)[C@@H](N)CC(=O)O)[C@@H](C)O)C(=O)N[C@@H](CCCCN)C(=O)O [NS5 295-311] | 5.29 µM | 0.98 µM |
